According to patent US11008572B2, “Methods and compositions for modulating splicing” (SKYHAWK THERAPEUTICS, INC., priority 2017, dated 2021):
Like-named read-outs stand apart in the source and are kept apart here.

Assays:
[1] = system: FOXM1^A2 mRNA and FOXM1^BC mRNA; test: Splicing assay (FOXM1), qPCR of isoform mRNAs; type: cell-based
Outline: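 RT-qPCR read-out after 24 h compound exposure at 37° C., 0.2% DMSO, top dose 10 μM with 4-fold 8-point dilutions, 20,000 cells per well. Copy numbers from plasmid standard curves, PPIA-normalized, expressed as isoform ratio relative to DMSO.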

A-673 cells = test: Cell viability, crystal violet staining; type: cell-based; details: Homo sapiens
Outline: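 Readout is absorbance at 570 nm of crystal violet, taken up in 0.1 M sodium citrate in 50% ethanol after staining with 0.5% dye in 25% methanol. Plates held 5×10^3 cells per well, and compounds were added one day after seeding for 72 hours. Data are relative to vehicle, mean±SE.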

[2] = FoxM1 BC mRNA decrease (exon included), read-out: Splice IC50 (nM) FoxM1 BC mRNA decrease (exon included)
[3] = read-out: Splice EC50 (nM) FoxM1 A mRNA increase (exon excluded)
[4] = A673, cell viability, read-out: A-673 IC50 (nM) Cell viability
[5] = 24 h, FoxM1 BC mRNA decrease (exon included), 0.1-1000 nM, 24 hours, read-out: Splice IC50 (nM), FoxM1 BC mRNA decrease (exon included)
[6] = FoxM1 A mRNA increase (exon excluded), 0.1-1000 nM, 24 hours, read-out: Splice EC50 (nM), FoxM1 A mRNA increase (exon excluded)
[7] = A673, cell viability, read-out: A-673 IC50 (nM), Cell viability

Row | SMILES | IC50 [1, 2] [nM] | EC50 [1, 3] [nM] | IC50 (A-673 cells; [4]) [nM] | IC50 [1, 5] [nM] | EC50 [1, 6] [nM] | IC50 (A-673 cells; [7]) [nM] | further results
1 | CN(c1ccc(-c2ccc(-c3ccn(C)c(=O)n3)cc2O)nn1)[C@H]1C[C@]2(C)CC[C@](C)(C1)N2 [compound 180, 4-(4-(6-(((1R,3s,5S)-1,5-dimethyl-8-azabicyclo[3.2.1]octan-3-yl)(methyl)amino)pyridazin-3-yl)-3-hydroxyphenyl)-1-methylpyrimidin-2(1H)-one] | 10 to 100 | 10 to 100 | 101 to 250 |  |  |  | 
2 | Cc1ccn(-c2ccc(-c3ccc(O[C@@H]4C[C@H]5CC[C@@H](C4)N5)nn3)c(O)c2)n1 [compound 250, 2-(6-(((1R,3s,5S)-8-azabicyclo[3.2.1]octan-3-yl)oxy)pyridazin-3-yl)-5-(3-methyl-1H-pyrazol-1-yl)phenol] |  |  |  | 101 to 250 | 10 to 100 | 501 to 1000 | 
3 | CN(c1ccc(-c2ccc(-c3cn[nH]c3)cc2O)nn1)[C@H]1C[C@@H]2C[C@H]1CN2 [compound 149, 2-(6-(((1S,4S,5S)-2-azabicyclo[2.2.1]heptan-5-yl)(methyl)amino)pyridazin-3-yl)-5-(1H-pyrazol-4-yl)phenol] | > 1000 | 251 to 500 | > 1000 |  |  |  | 
4 | CN(c1ccc(-c2ccc(-c3cn[nH]c3)cc2O)nn1)[C@@H]1C[C@@H]2C[C@H]1CN2 [compound 147, 2-(6-(((1S,4S,5R)-2-azabicyclo[2.2.1]heptan-5-yl)(methyl)amino)pyridazin-3-yl)-5-(1H-pyrazol-4-yl)phenol] | 251 to 500 | 101 to 250 | > 1000 |  |  |  | 
5 | Oc1cc(-n2ccnn2)ccc1-c1ccc(O[C@@H]2C[C@H]3CC[C@@H](C2)N3)nn1 [compound 252, 2-(6-(((1R,3s,5S)-8-azabicyclo[3.2.1]octan-3-yl)oxy)pyridazin-3-yl)-5-(1H-1,2,3-triazol-1-yl)phenol] |  |  |  | 251 to 500 | 101 to 250 | 501 to 1000 | 
6 | [2H]C([2H])([2H])n1ccc(-c2ccc(-c3ccc(N(C)C4CC5CCCC(C4)N5)nn3)c(O)c2)cc1=O [compound 284, 4-(4-(6-(((1R,3s,5S)-9-azabicyclo[3.3.1]nonan-3-yl)(methyl)amino)pyridazin-3-yl)-3-hydroxyphenyl)-1-(methyl-d3)pyridin-2(1H)-one] |  |  |  | < 10 | > 1000 | < 10 | 
7 | Cc1ncc(-c2ccc(-c3ccc(O[C@@H]4C[C@H]5CC[C@@H](C4)N5)nn3)c(O)c2)o1 [compound 255, 2-(6-(((1R,3s,5S)-8-azabicyclo[3.2.1]octan-3-yl)oxy)pyridazin-3-yl)-5-(2-methyloxazol-5-yl)phenol] |  |  |  | 101 to 250 | 101 to 250 | 501 to 1000 | 
8 | Cc1cc(-c2ccc(-c3ccc(N(C)[C@@H]4C[C@H]5CC[C@@H](C4)N5)nn3)c(O)c2)on1 [compound 229, 2-(6-(((1R,3s,5S)-8-azabicyclo[3.2.1]octan-3-yl)(methyl)amino)pyridazin-3-yl)-5-(3-methylisoxazol-5-yl)phenol] |  |  |  | > 1000 | > 1000 | > 1000 | 
9 | Oc1cc(-c2cn[nH]c2)ccc1-c1ccc(O[C@@H]2C[C@H]3CC[C@@H](C2)N3)nn1 [compound 140, 2-(6-(((1R,3s,5S)-8-azabicyclo[3.2.1]octan-3-yl)oxy)pyridazin-3-yl)-5-(1H-pyrazol-4-yl)phenol] | 10 to 100 | 10 to 100 | 101 to 250 |  |  |  | 
10 | CN(c1ccc(-c2ccc(-c3nnn[nH]3)cc2O)nn1)[C@@H]1C[C@H]2CC[C@@H](C1)N2 [compound 227, 2-(6-(((1R,3s,5S)-8-azabicyclo[3.2.1]octan-3-yl)(methyl)amino)pyridazin-3-yl)-5-(1H-tetrazol-5-yl)phenol] |  |  |  | > 1000 | > 1000 | > 1000 | 
11 | CN(c1ccc(-c2ccc(-n3cnc(C(F)(F)F)c3)cc2O)nn1)[C@@H]1C[C@H]2CC[C@@H](C1)N2 [compound 242, 2-(6-(((1R,3s,5S)-8-azabicyclo[3.2.1]octan-3-yl)(methyl)amino)pyridazin-3-yl)-5-(4-(trifluoromethyl)-1H-imidazol-1-yl)phenol] |  |  |  | 101 to 250 | 10 to 100 | 251 to 500 | 
12 | CN(c1ccc(-c2ccc(-c3cn[nH]c3)cc2O)nn1)[C@@H]1C[C@H]2C[C@@H]1CN2 [compound 148, 2-(6-(((1R,4R,5R)-2-azabicyclo[2.2.1]heptan-5-yl)(methyl)amino)pyridazin-3-yl)-5-(1H-pyrazol-4-yl)phenol] | > 1000 | > 1000 | > 1000 |  |  |  | 
13 | CN(c1ccc(-c2ccc(-c3c[nH]nn3)cc2O)nn1)[C@@H]1C[C@H]2CC[C@@H](C1)N2 [compound 226, 2-(6-(((1R,3s,5S)-8-azabicyclo[3.2.1]octan-3-yl)(methyl)amino)pyridazin-3-yl)-5-(1H-1,2,3-triazol-4-yl)phenol] |  |  |  | 10 to 100 | 10 to 100 | 101 to 250 | 
14 | C[C@]12CC[C@](C)(C[C@H](Oc3ccc(-c4ccc(-c5cn[nH]c5)cc4O)nn3)C1)N2 [compound 153, 2-(6-(((1R,3r,5S)-1,5-dimethyl-8-azabicyclo[3.2.1]octan-3-yl)oxy)pyridazin-3-yl)-5-(1H-pyrazol-4-yl)phenol] | > 1000 | > 1000 | > 1000 |  |  |  | 
15 | CN(c1ccc(-c2ccc(-n3ccnn3)cc2O)nn1)[C@@H]1C[C@H]2CC[C@@H](C1)N2 [compound 224, 2-(6-(((1R,3s,5S)-8-azabicyclo[3.2.1]octan-3-yl)(methyl)amino)pyridazin-3-yl)-5-(1H-1,2,3-triazol-1-yl)phenol] |  |  |  | 10 to 100 | < 10 | 101 to 250 | 
16 | Cc1nnn(-c2ccc(-c3ccc(N(C)[C@@H]4C[C@H]5CC[C@@H](C4)N5)nn3)c(O)c2)n1 [compound 234, 2-(6-(((1R,3s,5S)-8-azabicyclo[3.2.1]octan-3-yl)(methyl)amino)pyridazin-3-yl)-5-(5-methyl-2H-tetrazol-2-yl)phenol] |  |  |  | 10 to 100 | 10 to 100 | 10 to 100 | 
17 | Cc1ccc(-c2ccc(-c3ccc(N(C)[C@@H]4C[C@H]5CC[C@@H](C4)N5)nn3)c(O)c2)nn1 [compound 239, 2-(6-(((1R,3s,5S)-8-azabicyclo[3.2.1]octan-3-yl)(methyl)amino)pyridazin-3-yl)-5-(6-methylpyridazin-3-yl)phenol] |  |  |  | < 10 | < 10 | 251 to 500 | 
18 | CN(c1ccc(-c2ccc(-c3cn[nH]c3)cc2O)nn1)[C@H]1[C@@H]2CC[C@H]1CNC2 [compound 145, 2-(6-(((1R,5S,8r)-3-azabicyclo[3.2.1]octan-8-yl)(methyl)amino)pyridazin-3-yl)-5-(1H-pyrazol-4-yl)phenol] | > 1000 | > 1000 | > 1000 |  |  |  | 
19 | CN(c1ccc(-c2ccc(-n3ccnn3)cc2O)nn1)[C@@H]1C[C@H]2CCC[C@@H](C1)N2 [compound 279, 2-(6-(((1R,3s,5S)-9-azabicyclo[3.3.1]nonan-3-yl)(methyl)amino)pyridazin-3-yl)-5-(1H-1,2,3-triazol-1-yl)phenol] |  |  |  | < 10 | < 10 | 10 to 100 | 
20 | CN(c1ccc(-c2ccc(-c3cn[nH]c3)cc2O)nn1)[C@H]1C[C@H]2CC[C@@H](C1)N2 [compound 139, 2-(6-(((1R,3r,5S)-8-azabicyclo[3.2.1]octan-3-yl)(methyl)amino)pyridazin-3-yl)-5-(1H-pyrazol-4-yl)phenol] | > 1000 | > 1000 | > 1000 |  |  |  | 
21 | COc1cc(-c2ccc(-c3ccc(N(C)[C@H]4C[C@]5(C)CC[C@](C)(C4)N5)nn3)c(O)c2)cnn1 [compound 191, 2-(6-(((1R,3s,5S)-1,5-dimethyl-8-azabicyclo[3.2.1]octan-3-yl)(methyl)amino)pyridazin-3-yl)-5-(6-methoxypyridazin-4-yl)phenol] |  |  | < 10 |  |  |  | IC50 ([1]; Homo sapiens, A673, 24 h, A-673 cells, 24 hours, table does not say EC50 or IC50, read-out: FOXM1): < 1 nM; IC50 ([1]; Homo sapiens, A-375, 24 h, A-375 cells, 24 hours, table does not say EC50 or IC50, read-out: FOXM1): 1 to 10 nM; IC50 ([1]; Homo sapiens, K562, 24 h, K-562 cells, 24 hours, table does not say EC50 or IC50, read-out: FOXM1): 1 to 10 nM; IC50 ([1]; Homo sapiens, MDA-MB-468, 24 h, MDA-MB-468 cells, 24 hours, table does not say EC50 or IC50, read-out: FOXM1): 1 to 10 nM; IC50 ([1]; Homo sapiens, NCI-H358, 24 h, NCI-H358 cells, 24 hours, table does not say EC50 or IC50, read-out: FOXM1): 1 to 10 nM; IC50 ([1]; Homo sapiens, PANC-1, 24 h, PANC-1 cells, 24 hours, table does not say EC50 or IC50, read-out: FOXM1): 101 to 200 nM; IC50 ([1]; Homo sapiens, PC-3, 24 h, PC-3 cells, 24 hours, table does not say EC50 or IC50, read-out: FOXM1): 11 to 100 nM; IC50 ([1]; Homo sapiens, U-87 MG, 24 h, U-87MG cells, 24 hours, table does not say EC50 or IC50, read-out: FOXM1): 11 to 100 nM; IC50 (A-673 cells; A673, read-out: A-673 cell viability (IC50)): < 1 nM
22 | CN(c1ccc(-c2ccc(-c3cn[nH]c3)cc2O)nn1)[C@H]1C[C@H]2CNC[C@H]2C1 [compound 142, 2-(6-(methyl((3R,5r,6S)-octahydrocyclopenta[c]pyrrol-5-yl)amino)pyridazin-3-yl)-5-(1H-pyrazol-4-yl)phenol] | 501 to 1000 | 251 to 500 | > 1000 |  |  |  | 
